From patent publication US9504674B2, “TrkB agonists and methods of use” (EMORY UNIVERSITY, priority 2010, dated 2016) come the findings set out here.

Each structure is given as a SMILES string.

In assay [1] the test system is MAPK. In words: MAPK phosphorylation in primary neurons (immunoblotting). Format: cell-based, rat. The following applies: 500 nM, time course. The procedure: Rat primary neurons were treated with 500 nM. 4′-DMA-7,8-DHF from various time points. The neuronal lysates were analyzed with various antibodies. 4′-DMA-7,8-DHF rapidly activated TrkB and its downstream signaling cascades (left panels). […] One mg/kg of 4′-DMA-7,8-DHF and 7,8-DHF were orally administrated into C57 BL/6J mice and TrkB phosphorylation and its downstream signaling cascades including Akt and MAPK in mouse brain were analyzed by immunoblotting at various time points. TrkB activation by 4′-DMA-7,8-DHF peaked at 4 h, whereas the maximal TrkB activation by 7,8-DHF in mouse brain occurred at 1-2 h (middle panels).
To compare the TrkB activation by these synthetic compounds, primary cortical cultures were prepared. Cortical neurons were treated with 500 nM of various compounds for 20 min and cell lysates were collected. […] Replacing the H-bond acceptor O atom with hydrogen bond donor NH abolishes its stimulatory effect. […] On the other hand, 7,8-DHF provoked TrkB activation with the minimal concentration of 100 nM (FIG. 2B, right panels). To further study 4′-DMA-7,8-DHF's kinetics on TrkB activation, primary neurons were treated for various time points. 4′-DMA-7,8-DHF swiftly activated TrkB as soon as 5 minutes following treatment. […] TrkB activation was monitored at different time points.
In general terms: Immunoblotting shows a protein as a band on a membrane.

Assay [2] concerns active caspase-3. In words: Kainic acid (KA)-induced neuronal apoptosis in mice (active caspase-3 immunoblotting). Format: in vivo, mouse. The note with it: 5 mg/kg oral. The procedure:
C57BL/6J mice were orally administrated with 5 mg/kg of 4′-DMA-7,8-DHF and 7,8-DHF; at different time points, the mice were ip injected with 20 mg/kg KA for 2 h. The brain lysates were analyzed by immunoblotting with anti-p-TrkB, antiactive caspase-3 antibodies, respectively.
Male C57BL/6 mice aged of 60 days were orally injected with a single dose of 4′-DMA-7,8-DHF or 7,8-DHF ([…]). KA (20 mg/kg) (Sigma, MO) was i.p. injected. Animals were continually monitored for 2 h for the onset of seizure activity. At 0, 4 and 8 h following TrkB agonist treatment, the animals were sacrificed and the hippocampal section lysates were analyzed by immunoblotting with p-TrkB, active caspase-3 and total TrkB antibodies.
To quantitatively compare the anti-apoptotic activity by these two TrkB agonists, cortical neurons were pretreated with various concentrations of 4′-DMA-7,8-DHF and 7,8-DHF for 30 min, followed by […] for 16 h. Cell lysates were quantitatively analyzed with an active caspse-3 ELISA. […] To investigate whether these compounds exert any neuroprotective effects in animals, both compounds (5 mg/kg) were orally injected into mice. At 0, 2 h or 6 h, kainic acid (KA)(20 mg/kg) was administered intraperitoneally. At 2 h, mice were sacrificed and hippocampal regions were prepared. […] This kinetic spectrum tightly coupled to the TrkB activation status observed when treated with 7,8-DHF (FIG. 3C, right panel).

The target of assay [3] is T1, TrkB F616A (Mus musculus, UniProt P15209, F616A).
T1 construct: from tissue; host or cells: TrkB F616A knock-in mice (brain; whole animal in the forced swim test)
T1 sequence (P15209 32-821 F616A): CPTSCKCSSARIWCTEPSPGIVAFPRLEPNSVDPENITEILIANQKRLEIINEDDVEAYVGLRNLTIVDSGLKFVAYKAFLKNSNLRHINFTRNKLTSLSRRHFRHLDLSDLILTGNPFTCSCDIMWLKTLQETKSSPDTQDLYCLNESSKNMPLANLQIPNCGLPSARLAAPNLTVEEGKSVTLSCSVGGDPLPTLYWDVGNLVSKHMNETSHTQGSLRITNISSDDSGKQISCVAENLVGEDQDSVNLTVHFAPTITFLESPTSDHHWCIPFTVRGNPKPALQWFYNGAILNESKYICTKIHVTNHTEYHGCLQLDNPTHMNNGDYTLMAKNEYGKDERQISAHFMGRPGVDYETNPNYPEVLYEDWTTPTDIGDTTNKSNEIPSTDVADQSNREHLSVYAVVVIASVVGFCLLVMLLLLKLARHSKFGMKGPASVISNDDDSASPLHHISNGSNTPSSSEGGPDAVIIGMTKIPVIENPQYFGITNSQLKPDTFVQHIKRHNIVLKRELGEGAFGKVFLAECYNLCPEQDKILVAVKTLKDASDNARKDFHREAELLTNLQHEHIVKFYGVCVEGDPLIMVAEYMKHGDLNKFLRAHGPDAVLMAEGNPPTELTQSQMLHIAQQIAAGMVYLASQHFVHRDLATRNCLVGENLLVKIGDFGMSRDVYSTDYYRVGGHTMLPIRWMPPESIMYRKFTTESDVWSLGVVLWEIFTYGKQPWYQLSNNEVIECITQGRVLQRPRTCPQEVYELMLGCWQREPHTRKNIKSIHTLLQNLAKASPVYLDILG
In words: Neuroprotection against KA in TrkB F616A knockin mice with or without 1NMPP1. The format is in vivo. The note with it: for KA-induced caspase-3 activation in TrkB F616A mice: 5 mg/kg oral 4 h before KA 20 mg/kg; for KA-induced caspase-3 activation in TrkB F616A mice / TrkB F616A activation (phosphorylation) in knockin mice: without 1NMPP1; for protective effect against KA in F616A mice after 1NMPP1 pretreatment: 5 mg/kg oral 4 h before KA, 1NMPP1 in drinking water; for TrkB phosphorylation in F616A mice after 1NMPP1 pretreatment / TrkB F616A activation (phosphorylation) in knockin mice: 5 mg/kg oral. The procedure:
4′-DMA-7,8-DHF and 7,8-DHF suppressed KA-induced caspase-3 activation in TrkB F616A mutant knockin mice, which cannot be blocked by 1NMPP1 (top panel).
TrkB F616A knockin mice (2-3 months old) were fed with 1NMPP1 (25 mM) in drinking water one day before pharmacological reagent treatment. Next day, the mice were orally injected with 7,8-DHF or 4′-DMA-7,8-DHF (5 mg/kg) 4 h before kainic acid (20 mg/kg). The control mice were injected with saline, 1NMPP1, kainic acid alone or administrated 7,8-DHF or 4′-DMA-7,8-DHF 4 h before kainic acid. In 4 days, the mice were sacrificed and brains were homogenated and ultracentrafuged. The supernatant ([…]) was employed for SDS-PAGE and immunoblotting analysis with indicated antibodies, respectively.

`CN(C)c1ccc(-c2cc(=O)c3ccc(O)c(O)c3o2)cc1` [4′-DMA-7,8-DHF, 4′-dimethylamino-7,8-dihydroxyflavone]: in assay [1], the “time of peak MAPK phosphorylation” value came to 10 min. In addition, the “KA-induced neuronal apoptosis over time after dosing” value in assay [2] (KA 20 mg/kg i.p. at 0, 2 h or 6 h, hippocampal lysates) is reported as “gradually decreased over time”. In addition, in assay [3], the “KA-induced caspase-3 activation in TrkB F616A mice” value was “markedly diminished”, the “protective effect against KA in F616A mice after 1NMPP1 pretreatment” value is reported as “abolished”, the “TrkB phosphorylation in F616A mice after 1NMPP1 pretreatment” value is listed as “notably blocked by 1NMPP1 pretreatment” and the “TrkB F616A activation (phosphorylation) in knockin mice” value was “strongly activated”.
On to `O=c1cc(-c2ccccc2)oc2c(O)c(O)ccc12` [7,8-DHF, 7,8-dihydroxyflavone, reference compound], for which, in assay [2] (KA 20 mg/kg i.p., 4 h), the “KA-induced caspase-3 activation at 4 h” value is listed as “reduced”. For the same compound, the “active caspase-3 at 8 h” value in assay [2] (KA 20 mg/kg i.p., 8 h) is reported as “slightly increased”. Also, in assay [3], the “KA-induced caspase-3 activation in TrkB F616A mice” value is recorded as “markedly diminished”, the “protective effect against KA in F616A mice after 1NMPP1 pretreatment” value is “abolished”, the “TrkB phosphorylation in F616A mice after 1NMPP1 pretreatment” value is listed as “notably blocked by 1NMPP1 pretreatment” and the “TrkB F616A activation (phosphorylation) in knockin mice” value was “strongly activated”.
